From the supplement of paper PMC10307832

These cell lines were tested with O=C(O)C(Cc1ccccc1[N+](=O)[O-])=NNc1nc(-c2ccc(Cl)c(Cl)c2)cs1 (mixture of isomers) [4EGI-1] + CC(=O)c1c(C)c2cnc(Nc3ccc(N4CCNCC4)cn3)nc2n(C2CCCC2)c1=O [Palbociclib] (partner 0.5 µM) (assay: relative viability (nuclei count vs DMSO), 5 days (fraction); higher = more cells survive). Details: first compound 0.5 µM.
Method in brief: (§1)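 Cells from lung cancer lines were seeded into 1536-well plates and, one day later, dosed by pin tool. Treatments were either a single drug or a fixed dose of an anchor drug with five library-drug doses (not always all listed) in √10 steps. After 5 days, nuclei were stained in a one-step fixation (final 0.05% Triton X-100, 1% formaldehyde, 1 ug/ml Hoechst) and counted on 4× images, and relative viability is the treated-to-vehicle nuclei ratio, as the median of duplicate plates.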

Cell Line	relative viability
201T	0.365
A-427	0.543
ABC-1	0.73
BEN	0.452
CAL-12T	0.618
COR-L23	0.382
COR-L 105	0.386
ChaGo-K-1	0.95
EKVX	0.456
EMC-BAC-2	0.561
EPLC-272H	0.317
H3255	0.306
HARA	0.32
HCC-15	0.677
HCC-44	1
HCC-78	0.471
HCC-366	0.396
HCC-827	0.521
HOP-62	0.449
LC-2-ad	0.49
LCLC-97TM1	0.224
LCLC-103H	0.495
LK-2	0.692
LOU-NH91	0.493
LU99A	0.41
LXF-289	0.603
NCI-H23	0.541

Same assay, conditions: first compound 1.581 µM

Cell Line	relative viability
201T	0.358
BEN	0.455
COR-L23	0.214
COR-L 105	0.419
ChaGo-K-1	0.936
H3255	0.316
HARA	0.243
HCC-15	0.747
HCC-44	0.813
HCC-78	0.462
HCC-366	0.224
HCC-827	0.403
HOP-62	0.416
LC-2-ad	0.514
LCLC-103H	0.49
LU99A	0.281
LXF-289	0.602

Same assay, conditions: first compound 5 µM

Cell Line	relative viability
201T	0.364
A-427	0.535
ABC-1	0.738
BEN	0.498
CAL-12T	0.577
COR-L23	0.3
COR-L 105	0.434
ChaGo-K-1	0.973
EKVX	0.365
EMC-BAC-2	0.504
EPLC-272H	0.367
H3255	0.305
HARA	0.295
HCC-15	0.788
HCC-44	0.907
HCC-78	0.434
HCC-366	0.396
HCC-827	0.565
HOP-62	0.489
LC-2-ad	0.469
LCLC-97TM1	0.227
LCLC-103H	0.503
LK-2	0.639
LOU-NH91	0.519
LU99A	0.396
LXF-289	0.582
NCI-H23	0.614

Same assay, conditions: first compound 15.81 µM

Cell Line	relative viability
201T	0.316
A-427	0.492
ABC-1	0.527
BEN	0.46
CAL-12T	0.169
COR-L23	0.205
COR-L 105	0.334
ChaGo-K-1	1.01
EKVX	0.23
EMC-BAC-2	0.29
EPLC-272H	0.274
H3255	0.315
HARA	0.222
HCC-15	0.679
HCC-44	0.862
HCC-78	0.432
HCC-366	0.272
HOP-62	0.505
LC-2-ad	0.417
LCLC-97TM1	0.177
LCLC-103H	0.457
LK-2	0.803
LOU-NH91	0.581
LU99A	0.498
LXF-289	0.553
NCI-H23	0.393

Same assay, conditions: first compound 50 µM

Cell Line	relative viability
201T	0.31
A-427	0.319
ABC-1	0.249
BEN	0.458
CAL-12T	0.145
COR-L23	0.101
COR-L 105	0.344
ChaGo-K-1	0.556
EKVX	0.307
EMC-BAC-2	0.157
EPLC-272H	0.301
H3255	0.302
HARA	0.202
HCC-15	0.292
HCC-44	0.681
HCC-78	0.488
HCC-366	0.0604
HCC-827	0.5
HOP-62	0.319
LC-2-ad	0.305
LCLC-97TM1	0.123
LCLC-103H	0.347
LK-2	0.539
LOU-NH91	0.52
LU99A	0.297
LXF-289	0.518
NCI-H23	0.272

Each cell line was assayed with O=C(O)C(Cc1ccccc1[N+](=O)[O-])=NNc1nc(-c2ccc(Cl)c(Cl)c2)cs1 (mixture of isomers) [4EGI-1] + O=C(c1cc(Cc2n[nH]c(=O)c3ccccc23)ccc1F)N1CCN(C(=O)C2CC2)CC1 [Olaparib] (partner 8 µM) in the same assay as above. Details: first compound 0.5 µM.
Method in brief: as §1

Cell Line	relative viability
201T	0.859
A549	0.495
A-427	0.777
ABC-1	0.885
BEN	1.15
CAL-12T	0.829
COR-L23	0.35
COR-L 105	0.64
Calu-6	0.559
ChaGo-K-1	0.386
EBC-1	0.808
EKVX	0.838
EMC-BAC-2	0.517
EPLC-272H	0.781
H3255	0.591
HARA	0.848
HCC-15	0.716
